Reference: patent US20060217418A1, “Substituted alkyl amido piperidines” (priority 2001, published 2006)

What follows are compounds tested against T1, rat MCH1 receptor (Rattus norvegicus, UniProt P97639) (assay: Radioligand binding assay at cloned rat MCH1 receptor ([3H]Compound A)). Conditions: cloned rat MCH1, Peakr293 cell membranes, 0.08 nM [3H]Compound A, 25° C., 90 minutes; read-out: Ki(MCH-1).
T1 construct: operatively linked to DNA encoding the rat MCH1 receptor so as to permit expression thereof; expressed in transfected cells; host or cells: Human embryonic kidney Peak rapid 293 (Peakr293) cells, transient calcium phosphate transfection, membranes
T1 sequence (P97639 whole entry): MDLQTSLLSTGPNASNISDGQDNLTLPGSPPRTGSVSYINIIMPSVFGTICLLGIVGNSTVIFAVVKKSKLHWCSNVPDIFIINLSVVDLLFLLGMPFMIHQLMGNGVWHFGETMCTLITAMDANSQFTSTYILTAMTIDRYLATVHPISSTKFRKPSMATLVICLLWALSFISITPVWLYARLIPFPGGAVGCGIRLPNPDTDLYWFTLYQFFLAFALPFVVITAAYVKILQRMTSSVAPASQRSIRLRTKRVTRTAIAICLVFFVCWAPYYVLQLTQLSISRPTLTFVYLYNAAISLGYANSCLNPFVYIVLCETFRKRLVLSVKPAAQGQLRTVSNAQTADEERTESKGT

Structure (SMILES)	Ki [nM]
CCC(=O)Nc1cccc(C2CCN(CCCNC(=O)C3(c4ccc(F)cc4)CCCCC3)CC2)c1 [Example 61, 1-(4-FLUOROPHENYL)-N-(3-{4-[3-(PROPIONYLAMINO)PHENYL]-1-PIPERIDINYL} PROPYL)CYCLOHEXANECARBOXAMIDE]	63.3
CC(C)C(=O)Nc1cccc(C2CCN(CCCNC(=O)C3(c4ccc(Cl)cc4)CCCCC3)CC2)n1 [Example 67, 1-(4-CHLOROPHENYL)-N-(3-{4-[6-(ISOBUTYRYLAMINO)-2-PYRIDINYL]-1-PIPERIDINYL} PROPYL)CYCLOHEXANECARBOXAMIDE]	9.9
CC(=O)Nc1cccc(C2CCN(CCCNC(=O)C(c3ccc(Cl)cc3)c3ccc(Cl)cc3)CC2)c1 [Example 55]	0.3
CC(=O)Nc1cccc(C2CCN(CCCNC(=O)C3(c4ccc(Cl)cc4)CCCCC3)CC2)c1 [Example 75, N-(3-{4-[3-(ACETYLAMINO)PHENYL]-1-PIPERIDINYL}PROPYL)-1-(4-CHLOROPHENYL) CYCLOHEXANECARBOXAMIDE]	4.7
CC(C)C(=O)Nc1ccc(F)c(C2CCN(CCCNC(=O)C(C)(C)c3ccc(Cl)cc3)CC2)c1 [Example 127]	175
CC(C)C(=O)Nc1ccc(F)c(C2CCN(CCCNC(=O)C3(c4ccc(Cl)cc4)CCCC3)CC2)c1 [Example 128]	2.9
CC(C)C(=O)Nc1ccc(F)c(C2CCN(CCCNC(=O)C(c3ccc(Cl)cc3)c3ccc(Cl)cc3)CC2)c1 [Example 54]	2.2
CC(C)C(=O)Nc1cccc(C2CCN(CCCNC(=O)C3(c4ccc(Cl)cc4)CCCC3)CC2)n1 [Example 84]	12.6
CC(C)C(=O)Nc1cccc(C2CCN(CCCNC(=O)C3(c4ccc(Cl)cc4)CC3)CC2)n1 [Example 76, 1-(4-CHLOROPHENYL)-N-(3-{4-[6-(ISOBUTYRYLAMINO)-2-PYRIDINYL]-1-PIPERIDINYL} PROPYL)CYCLOPROPANECARBOXAMIDE]	48
CC(C)OC(=O)Nc1cccc(C2CCN(CCCNC(=O)C(c3ccc(Cl)cc3)c3ccc(Cl)cc3)CC2)c1 [Example 143, Isopropyl 3-[1-(3-{[bis(4-chlorophenyl)acetyl]amino}propyl)-4-piperidinyl]phenylcarbamate]	6.2
COc1ccc(NC(=O)C(C)C)cc1C1CCN(CCCNC(=O)C(c2ccc(F)cc2)c2ccc(F)cc2)CC1 [Example 23]	13.1
CC(C)C(=O)Nc1ccc(F)c(C2CCN(CCCNC(=O)C3(c4ccc(F)cc4)CCCC3)CC2)c1 [Example 129]	4.5
Cc1ccc(NC(=O)C(C)C)cc1C1CCN(CCCNC(=O)[C@H](C)c2ccccc2)CC1 [Example 164, 2-methyl-N-{4-methyl-3-[1-(3-{[(2R)-2-phenylpropanoyl]amino}propyl)-4-piperidinyl]phenyl} propanamide]	14.6
CCC(=O)Nc1cccc(C2CCN(CCCNC(=O)C(c3ccc(F)cc3)c3ccc(F)cc3)CC2)c1 [Example 21, N-{3-[1-(3-{[2,2-BIS(4-FLUOROPHENYL)ACETYL]AMINO}PROPYL)-4-PIPERIDINYL] PHENYL}PROPANAMIDE]	0.7
O=C(Nc1cccc(C2CCN(CCCNC(=O)C3(c4ccc(F)cc4)CCCC3)CC2)c1)C1CC1 [Example 121, N-[3-(4-{3-[(CYCLOPROPYLCARBONYL)AMINO]PHENYL}-1-PIPERIDINYL) PROPYL]-1-(4-FLUOROPHENYL)CYCLOPENTANECARBOXAMIDE]	10.2
CCCC(=O)Nc1ccc(OC)c(C2CCN(CCCNC(=O)C(c3ccccc3)c3ccccc3)CC2)c1 [Example 22]	136
Cc1ccc(NC(=O)C(C)C)cc1C1CCN(CCCNC(=O)C(C)(C)c2ccc(Cl)cc2)CC1 [Example 91]	2.9
CC(C)C(=O)Nc1cccc(C2CCN(CCCNC(=O)C3(c4ccc(Cl)cc4)CCC3)CC2)n1 [Example 73, 1-(4-CHLOROPHENYL)-N-(3-{4-[6-(ISOBUTYRYLAMINO)-2-PYRIDINYL]-1-PIPERIDINYL} PROPYL)CYCLOBUTANECARBOXAMIDE]	32.4
CCCC(=O)Nc1cccc(C2CCN(CCCNC(=O)C3(c4ccc(Cl)cc4)CCCCC3)CC2)c1 [Example 99, N-(3-{4-[3-(BUTYRYLAMINO)PHENYL]-1-PIPERIDINYL}PROPYL)-1-(4-CHLOROPHENYL) CYCLOHEXANECARBOXAMIDE]	2.9
